# Assays:
# 293T cells = test: GFP expression in 293T cells treated with LNP-SamRNA-GFP (formulation optimization, FACS); format: cell-based; details: LNPs with self-amplifying mRNA encoding GFP, FIG. 22
# Description: (§1) The LNPs containing SamRNA-GFP (or SamRNA-LUC, 100 ng/well) were added into 96-well plate which was pre-seeded with 293T, C2C12 or MC38 cells. After 24 hours incubation at 37° C. and 5% CO2, the luciferase SamRNA transfection efficiency was measured by plate reader (Perkin Elmer Envision 2104). The GFP SamRNA transfection efficiency was measured by flow cytometry (BD FACSymphony™ A5 SE Cell Analyzer).
# An orthogonal experimental design was applied to optimize the formulation of synthesized ionizable lipids, DOPE, Chol and DMG-PEG2000 that encapsulated samRNA-GFP. Library A contained 16 formulations with four factors and four levels.
# In Library A, the 293T cells were treated in different amounts of LNPs ([…] of SamRNA-GFP). The delivery efficiency of LNPs-SamRNA-GFP of A-6, A-9, A-10, A-13 show more than 60% GFP expression when the 293T cells were transfected with 50, 25 and 12.5 ng of mRNA (FIG. 14). The samRNA-GFP delivery efficiency increased with the molar ratios of Chol and DOPE increase, while increased the molar ratios of P6A2 and DMG-PEG2000 reduced the samRNA-GFP delivery efficiency (FIG. 15).
# A second orthogonal experimental design was applied to optimize the formulation of LNPs. In Library B, the 293T cells were treated with 50 or 12.5 ng of samRNA-GFP (FIG. 16).
# [1] = test system: 293T, C2C12 or MC38 cells; test: SamRNA-GFP transfection efficiency of LNPs by flow cytometry; format: cell-based; details: LNP-SamRNA-GFP formulated with the lipid; FIGS. 4-6, 8-10
# Description: The delivery system used to deliver the GFP-mRNA transfect are LNPs formulated using 12 individual ionizable lipids synthesized by three-component reactions. To generate the LNP encapsulated self-amplifying mRNA, the ionizable lipids of the present disclosure were dissolved in ethanol and directly added into an ethanol solution containing DOPE, cholesterol and DMG-PEG2000 at predetermined molar ratio. Self-amplifying mRNA encoding GFP sequences aqueous solution was mixed and the LNP mixture (100 ng mRNA) was added to a 96-well plate pre-seeded with MC38, C2C12 or 293T cells. The cells were incubated at 5% CO2 and 37° C. overnight. The GFP mRNA transfection efficiency was measured by flow cytometry.
# E6, an ionizable lipid of the disclosure, was formulated into LNPs with 1,2-Dioleoyl-sn-glycero-3-phosphoethanolamine (DOPE), cholesterol (Chol), methoxypolyethylene glycol (DMG-PEG2000) with a mole ratio of 50/10/38.5/1.5 (ionizable lipid/DOPE/Chol/DMG-PEG2000) encapsulated self-amplifying mRNA or DNA encoding with reporter genes either green fluorescent protein (samRNA-GFP or DNA-CMV-EGFP) or firefly Luciferase (samRNA-LUC). Formulations containing 100 ng of self-amplifying mRNA were incubated to a well of 96-well plate with 60-70% confluent of HEK293, or C2C12, or MC38 cells (FIGS. 10, 23). The transfection efficiency was determined by flow cytometry for detection of GFP, or plate reader for detection of luciferase. LNP formulated using FDA approved ionizable lipid MC3 was used as a control (FIG. 10).
# as §1
SMILES,delivery efficacies compared with FDA approved ionizable lipid MC3 (293T cells),delivery of mRNA-GFP compared with FDA approved ionizable lipid MC3 [1]
CCCCCCCCCCCCCCN(CCCCCCCCCCCCCC)CCC(=O)OC1CC(OC(=O)CCN(CCCCCCCCCCCCCC)CCCCCCCCCCCCCC)CC(OC(=O)CCN(CCCCCCCCCCCCCC)CCCCCCCCCCCCCC)C1 (stereo not shown) [T7],better delivery efficacies than FDA approved ionizable lipid MC3,–
CCCCCCCCCCCCC(CCCCCCCCCC)CNCCC(=O)OC1CC(OC(=O)CCNCC(CCCCCCCCCC)CCCCCCCCCCCC)CC(OC(=O)CCNCC(CCCCCCCCCC)CCCCCCCCCCCC)C1 (stereo not shown) [P7],better delivery efficacies than FDA approved ionizable lipid MC3,–
"CCCCCCCCCCCCCCN(CCCCCCCCCCCCCC)C(c1ccc(CCCCCCCCCCCC)cc1)c1ccccc1O (stereo not shown) [TP3G11, 2-((ditetradecylamino)(4-dodecylphenyl)methyl)phenol]",–,more effectively deliver mRNA-GFP
"CCCCCCCCCN(CCCCCCCCC)CCC(=O)N1CN(C(=O)CCN(CCCCCCCCC)CCCCCCCCC)CN(C(=O)CCN(CCCCCCCCC)CCCCCCCCC)C1 [E2, 1,1′,1″-(1,3,5-triazinane-1,3,5-triyl)tris(3-(dinonylamino)propan-1-one)]",–,more effectively deliver mRNA-GFP

# Source: patent publication US12655114B2, “Ionizable lipid compounds and lipid nanoparticle compositions” (SunVax mRNA Therapeutics Inc., priority 2022, dated 2026)
